# Measured values from patent US20030134892A1, “Compositions for treatment of head and neck cancers, and methods of making and using the same” (priority 2001, published 2003).
# Legend:
# JHU012 cells = test: Experiment 1: human orthotopic squamous cell head and neck cancer model, tumor size after treatment; format: in vivo, Nu/nu mice; conditions: 45 days following treatment
# Procedure: The efficacy of paclitaxel microsphere formulations in human orthotopic squamous cell head and neck cancer models were tested below.
# Nu/nu mice were injected with 1×10^7 JHU012 cells into the anterior floor of mouth near the genial tubercle of the mandible. 12 days following cell injection, the tumors were approximately 80 mm^3. […] 45 days following treatment, the animals were sacrificed and tumors measured again.
# [1] = tested on: human head and neck cancer cell line; test: Experiment 2: human tumor model with radiation, orthotopic tumor in the neck of a nude mouse; format: in vivo; conditions: injected intratumorally three week post cell injection, followed by fractionated radiation (RT) 2 gy/day for 4 days
# Procedure: In this study, the model is also a human head and neck cancer cell line but the tumor was grown orthotopically in the neck of a nude mouse. Three week post cell injection the tumors were injected intratumorally with paclimer and then followed by fractionated radiation, 2 gy/day for 4 days.
SMILES,"Tumor Size at end of Experiment 1 (JHU012 cells; 24 mg/kg i.p., tumors approx. 80 mm^3 at treatment)",Tumor Size [1],"Tumor Size at end of Experiment 1 (JHU012 cells; 0.15 mmol/kg/day oral, 4 days)"
"CC(=O)O[C@H]1C(=O)[C@@]2(C)[C@H]([C@H](OC(=O)c3ccccc3)[C@]3(O)C[C@H](OC(=O)[C@H](O)[C@@H](NC(=O)c4ccccc4)c4ccccc4)C(C)=C1C3(C)C)[C@]1(OC(C)=O)CO[C@@H]1C[C@@H]2O [ptx, paclitaxel]",973.3 ± 91.7 mm^3,102.3 ± 37.0 mm^3,
"O=c1[nH]cc(F)c(=O)[nH]1 [5-fu, 5-fluorouracil]",,,518.7 ± 96.3 mm^3
